Our source for the pE50 values is US11001590B2, “Pyrazolopyrimidine derivatives” (BAYER ANIMAL HEALTH GMBH, priority 2016, dated 2021).

C. elegans Slo-1a, sequence (Q95V25 whole entry): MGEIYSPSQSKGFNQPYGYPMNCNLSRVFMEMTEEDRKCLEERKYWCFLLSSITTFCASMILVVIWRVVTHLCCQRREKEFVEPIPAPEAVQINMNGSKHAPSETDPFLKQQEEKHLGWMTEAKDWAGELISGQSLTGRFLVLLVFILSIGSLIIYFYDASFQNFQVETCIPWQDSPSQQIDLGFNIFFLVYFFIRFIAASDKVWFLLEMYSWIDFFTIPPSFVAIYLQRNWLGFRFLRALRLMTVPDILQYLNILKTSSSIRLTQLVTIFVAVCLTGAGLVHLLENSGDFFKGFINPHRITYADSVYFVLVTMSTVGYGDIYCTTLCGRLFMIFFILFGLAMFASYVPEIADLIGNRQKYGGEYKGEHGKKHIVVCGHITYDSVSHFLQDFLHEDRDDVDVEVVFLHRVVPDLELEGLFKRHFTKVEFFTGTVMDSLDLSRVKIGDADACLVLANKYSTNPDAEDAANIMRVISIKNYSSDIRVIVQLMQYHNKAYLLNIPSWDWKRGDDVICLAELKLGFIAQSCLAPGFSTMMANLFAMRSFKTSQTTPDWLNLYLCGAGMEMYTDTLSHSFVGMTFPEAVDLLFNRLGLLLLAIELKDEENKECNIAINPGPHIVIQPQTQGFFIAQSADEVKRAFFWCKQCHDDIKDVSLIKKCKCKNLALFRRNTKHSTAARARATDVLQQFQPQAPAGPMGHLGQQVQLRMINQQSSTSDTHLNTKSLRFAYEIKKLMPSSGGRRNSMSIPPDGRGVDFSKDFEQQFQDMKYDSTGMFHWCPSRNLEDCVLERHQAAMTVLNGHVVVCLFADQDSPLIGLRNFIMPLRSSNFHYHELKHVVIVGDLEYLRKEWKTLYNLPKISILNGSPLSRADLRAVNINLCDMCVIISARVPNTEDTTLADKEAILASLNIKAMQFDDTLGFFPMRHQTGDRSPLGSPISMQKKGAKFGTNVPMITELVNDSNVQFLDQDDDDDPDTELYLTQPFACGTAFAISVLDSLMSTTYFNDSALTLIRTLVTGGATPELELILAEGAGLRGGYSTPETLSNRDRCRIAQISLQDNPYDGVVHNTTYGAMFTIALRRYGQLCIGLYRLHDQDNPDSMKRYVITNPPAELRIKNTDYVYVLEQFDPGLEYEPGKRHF

The assay has as its target C. elegans Slo-1a (Caenorhabditis elegans, UniProt Q95V25). Briefly: In vitro assay 1: C. elegans Slo-1a, action at a recombinant C. elegans CHO cell line (membrane potential measurement). The settings on record: CHO cells expressing C. elegans Slo-1a; voltage sensitive dye, FLIPR Tetra; negative decadic logarithm of EC50.
For the compound `CC(C)c1c(C(=O)N[C@H]2CCOc3ccccc32)cnc2c(-c3cc(Cl)c(F)c(Cl)c3)c(C(F)F)nn12` [Example 282], the pE50 is given as 8.3. With `Cc1nn2c(C(C)C)c(C(=O)N[C@H]3CCCc4ccccc43)cnc2c1-c1ccccc1Cl` [Example 19], the pE50 turned out to be 8. Next, `Cc1nn2c(C(C)C)c(C(=O)N[C@H]3CCc4ccccc43)cnc2c1-c1ccc(Cl)cc1` [Example 32]: 7.5; `Cc1nn2c(N(C)C)c(C(=O)N[C@H]3CCOc4ccccc43)cnc2c1-c1ccc(F)c(N(C)C)c1F` [Example 550]: 8.7; `COc1c(F)ccc(-c2c(C)nn3c(C4CC4)c(C(=O)N[C@H]4CCOc5ccccc54)cnc23)c1F` [Example 284]: 9.1. Next, `CCc1c(C(=O)N[C@H]2CCOc3ccccc32)cnc2c(-c3cccc(Cl)c3Cl)c(C)nn12` [Example 484]: 8.6.

`CC(C)c1c(C(=O)N[C@H]2CCOc3ccccc32)cnc2c(-c3c(F)cccc3F)c(C(F)F)nn12` [Example 495]: the pE50 came to 8.3. The value for `O=C(N[C@H]1CCOc2ccccc21)c1cnc2c(-c3ccc(F)c(F)c3)c(C(F)F)nn2c1C1CC1` [Example 274] was 7.7; that for `CC(C)c1c(C(=O)N[C@H]2CCOc3ccccc32)cnc2c(-c3cccc(F)c3F)c(C(F)F)nn12` [Example 279] was 8.2; that for `Cc1nn2c(C)c(C(=O)N[C@H]3CCc4ccccc43)cnc2c1-c1ccc(Cl)cc1` [Example 27] was 7.2. On to `CC(C)c1c(C(=O)N[C@H]2CCOc3ccccc32)cnc2c(-c3cccc(Cl)c3)c(C(F)F)nn12` [Example 276], for which the pE50 is listed as 8. The value for `CC(C)c1c(C(=O)N[C@H]2CCOc3ccccc32)cnc2c(-c3cccc(Cl)c3Cl)c(C(F)F)nn12` [Example 505] was 8.5; that for `CC(C)c1c(C(=O)N[C@H]2CCc3ccccc32)cnc2c(-c3ccc(Cl)cc3)cnn12` [Example 23] was 7.2; that for `CC(C)c1c(C(=O)N[C@H]2CCOc3ccccc32)cnc2c(-c3ccc(F)c(F)c3F)c(C(F)F)nn12` [Example 508] was 8.2. Consider `Cc1c(C(=O)N[C@H]2CCc3ccccc32)cnc2c(-c3ccccc3Cl)cnn12` [Example 43], for which the pE50 is recorded as 6.8. Turning to `CC(C)c1c(C(=O)N[C@H]2CCOc3ccccc32)cnc2c(-c3cccc(Cl)c3)c(Cl)nn12` [Example 275], the pE50 is on record as 7.9.

In the case of `CCc1c(C(=O)N[C@H]2CCOc3ccccc32)cnc2c(-c3cc(Cl)ccc3Cl)c(C)nn12` [Example 486], the pE50 amounted to 8.4. With `CCc1c(C(=O)N[C@H]2CCOc3ccccc32)cnc2c(-c3cc(Cl)c(F)c(Cl)c3)c(C)nn12` [Example 497], the pE50 is listed as 8. Regarding `COc1c(F)ccc(-c2c(C(F)F)nn3c(C(C)C)c(C(=O)N[C@H]4CCOc5ccccc54)cnc23)c1F` [Example 502], the pE50 came out at 8.6.

As to `CC(C)c1c(C(=O)N[C@H]2CCCc3ccccc32)cnc2c(-c3cccc(F)c3F)c(Cl)nn12` [Example 286], the pE50 was found to be 7.9.

Regarding `Cc1nn2c(N(C)C)c(C(=O)N[C@H]3CCOc4ccccc43)cnc2c1-c1cccc(Cl)c1F` [Example 552], the pE50 is reported as 8.7. Consider `Cc1nn2c(N(C)C)c(C(=O)N[C@H]3CCOc4ccccc43)cnc2c1-c1cccc(F)c1F` [Example 549], for which the pE50 worked out at 8.4. The value for `CCc1c(C(=O)N[C@H]2CCOc3ccccc32)cnc2c(-c3ccc(F)c(OC)c3F)c(C)nn12` [Example 496] was 8.9; that for `Cc1nn2c(N(C)CCN3CCCC3=O)c(C(=O)N[C@H]3CCOc4ccccc43)cnc2c1-c1cc(Cl)cc(Cl)c1` [Example 560] was 8.2; that for `CC(C)c1c(C(=O)N[C@H]2CCOc3ccccc32)cnc2c(-c3c(F)ccc(Cl)c3F)c(C(F)F)nn12` [Example 277] was 8.8. The value for `COc1c(F)ccc(-c2c(C(F)F)nn3c(C4CC4)c(C(=O)N[C@H]4CCOc5ccccc54)cnc23)c1F` [Example 269] was 9; that for `CC(C)c1c(C(=O)N[C@H]2CCCc3ccccc32)cnc2c(-c3ccc(Cl)cc3)cnn12` [Example 25] was 6.6; that for `Cc1nn2c(C3CC3)c(C(=O)N[C@H]3CCOc4ccccc43)cnc2c1-c1cccc(O)c1` [Example 501] was 6.3.

`O=C(N[C@H]1CCOc2ccccc21)c1cnc2c(-c3cc(Cl)c(F)c(Cl)c3)c(C(F)F)nn2c1C1CC1` [Example 272]: the pE50 amounted to 7.6. The value for `COc1c(F)cc(F)c(-c2c(C)nn3c(C4CC4)c(C(=O)N[C@H]4CCOc5ccccc54)cnc23)c1F` [Example 482] was 9.2; that for `O=C(N[C@H]1CCOc2ccccc21)c1cnc2c(-c3ccc(Cl)cc3Cl)c(C(F)F)nn2c1C1CC1` [Example 511] was 8.4. Turning to `COc1c(F)ccc(-c2c(C)nn3c(N(C)C)c(C(=O)N[C@H]4CCOc5ccccc54)cnc23)c1F` [Example 551], the pE50 came to 8.9. `O=C(N[C@H]1CCOc2ccccc21)c1cnc2c(-c3c(F)cccc3F)c(C(F)F)nn2c1C1CC1` [Example 493]: the pE50 stood at 8.7. In the case of `Cc1ccccc1-c1c(C)nn2c(N(C)C)c(C(=O)N[C@H]3CCOc4ccccc43)cnc12` [Example 553], the pE50 came to 8.2.

Take `Cc1c(C(=O)N[C@H]2CCc3ccccc32)cnc2c(-c3ccc(Cl)cc3)cnn12` [Example 31]: the pE50 worked out at 6.7. Turning to `O=C(N[C@H]1CCOc2ccccc21)c1cnc2c(-c3c(F)ccc(Cl)c3F)c(C(F)F)nn2c1C1CC1` [Example 280], the pE50 is 8.9. Turning to `Cc1nn2c(C(C)C)c(C(=O)N[C@H]3CCOc4ccccc43)cnc2c1-c1cccc2[nH]ccc12` [Example 481], the pE50 was found to be 7.7. Next, `CC(C)c1c(C(=O)N[C@H]2CCCc3ccccc32)cnc2c(-c3ccccc3Cl)cnn12` [Example 21]: 6.5; `Cc1nn2c(C(C)C)c(C(=O)N[C@H]3CCCc4ccccc43)cnc2c1-c1ccc(Cl)cc1` [Example 29]: 6.7.

For the compound `Cc1c(C(=O)N[C@H]2CCCc3ccccc32)cnc2c(-c3ccc(Cl)cc3)cnn12` [Example 41], the pE50 was found to be 4.8. In the case of `Cc1nn2c(C)c(C(=O)N[C@H]3CCCc4ccccc43)cnc2c1-c1ccccc1Cl` [Example 9], the pE50 amounted to 7.8. Turning to `CCc1c(C(=O)N[C@H]2CCOc3ccccc32)cnc2c(-c3ccc(F)c(F)c3F)c(C)nn12` [Example 490], the pE50 turned out to be 8.3.

For the compound `Cc1nn2c(C3CC3)c(C(=O)N[C@H]3CCOc4ccccc43)cnc2c1-c1cccc2c1CCO2` [Example 510], the pE50 is reported as 8.6. The value for `Cc1nn2c(C3CC3)c(C(=O)N[C@H]3CCOc4ccccc43)cnc2c1-c1cccc(Cl)c1F` [Example 480] was 8.9; that for `Cc1nn2c(C3CC3)c(C(=O)N[C@H]3CCOc4ccccc43)cnc2c1-c1cc(C(F)(F)F)ccc1Cl` [Example 509] was 8.9; that for `Cc1nn2c(C(C)C)c(C(=O)N[C@H]3CCOc4ccccc43)cnc2c1-c1ccc(F)c(N(C)C)c1F` [Example 283] was 9.3.

Regarding `O=C(N[C@H]1CCOc2ccccc21)c1cnc2c(-c3c(F)cccc3Cl)c(C(F)F)nn2c1C1CC1` [Example 499], the pE50 is given as 8.5.
